Measurements published in paper PMC8521408 (Journal of Antimicrobial Chemotherapy, 2021).
Read-outs that look alike come from different tables or passages of the source.

Columns and labels:
[1] = New-onset AKI during vancomycin treatment
[2] = for Covariate effect, CRGT on CL: exponent of (CRGT/83) on CL
[3] = for Cumulative AUC: mean ± SD, SD
[4] = Other clinical endpoints during ICU stay
[5] = final model estimate, scaled to 70 kg TBW, critically ill ICU patients
[6] = median of bootstrap of final model (1000 samples)

SMILES: CN[C@H](CC(C)C)C(=O)N[C@H]1C(=O)N[C@@H](CC(N)=O)C(=O)N[C@H]2C(=O)N[C@H]3C(=O)N[C@H](C(=O)N[C@H](C(=O)O)c4cc(O)cc(O)c4-c4cc3ccc4O)[C@H](O)c3ccc(c(Cl)c3)Oc3cc2cc(c3O[C@@H]2O[C@H](CO)[C@@H](O)[C@H](O)[C@H]2O[C@H]2C[C@](C)(N)[C@H](O)[C@H](C)O2)Oc2ccc(cc2Cl)[C@H]1O [vancomycin]
- incidence of new-onset AKI ([1]; AUC0–24 < 400 mg·h/L, 4/27, all three groups): 14.8%
- incidence of new-onset AKI ([1]; AUC0–24 below 600 mg·h/L, 17/69): 24.6%
- incidence of new-onset AKI ([1]; AUC0–24 ≥400 mg·h/L, 30/77, all three groups): 39.0%
- incidence of new-onset AKI ([1]; AUC0–24 ≥ 600 mg·h/L, 17/35): 48.6%
- number needed to harm (new-onset AKI) ([1]; AUC0–24 ≥400 versus < 400 mg·h/L): 4.1
- percentage of patients with new-onset AKI ([1]; CD group, fixed first dose 1000 mg, 10/35 patients): 28.6%
- percentage of patients with new-onset AKI ([1]; LD group, 25 mg/kg loading dose, 17/45 patients): 37.8%
- Covariate effect, CRGT on CL ([2]; bootstrap median): 0.63
- Covariate effect, CRGT on CL ([2]; final model estimate): 0.65
- V1, vancomycin central volume of distribution [2, 5]: 13.4 L
- V2, vancomycin peripheral volume of distribution [2, 5]: 36.9 L
- CL, vancomycin clearance [2, 6]: 1.83 L/h
- V1, vancomycin central volume of distribution [2, 6]: 13.1 L
- V2, vancomycin peripheral volume of distribution [2, 6]: 35.7 L
- median AUC0–24 ([3]; CD group, fixed first dose 1000 mg (N = 39 courses)): 401 µg·h/mL
- percentage of courses achieving AUC0–24 ≥400 mg·h/L ([3]; CD group, fixed first dose 1000 mg (N = 39 courses), assuming MIC = 1 mg/L): 53.8%
- median AUC0–24 ([3]; LD group, 25 mg/kg loading dose (N = 50 courses)): 602 µg·h/mL
- Cumulative AUC ([3]; all episodes included for model building (N = 104)): 1937 ± 1448 µg·h/mL
- percentage of courses with AUC0–24 > 600 mg·h/L ([3]; courses with a loading dose, 26/50): 52%
- Cumulative AUC ([3]; episodes with 25 mg/kg loading dose, LD group (N = 50)): 2027 ± 1543 µg·h/mL
- Cumulative AUC ([3]; episodes without loading dose, CD group, first dose 1000 mg (N = 39)): 1849 ± 1359 µg·h/mL
- percentage of patients still on CVVH or other RRT at ICU discharge ([4]; CD group): 21.2%
- percentage of patients with AKI at ICU discharge ([4]; CD group): 30.3%
- percentage of patients with AKI using the maximum RIFLE score during the complete ICU stay ([4]; CD group): 59.4%
- mean AKI duration ([4]; CD group, fixed first dose 1000 mg): 75.2 h
- percentage of patients still on CVVH or other RRT at ICU discharge ([4]; LD group): 31.7%
- percentage of patients with AKI at ICU discharge ([4]; LD group): 34.1%
- percentage of patients with AKI using the maximum RIFLE score during the complete ICU stay ([4]; LD group): 57.5%
- mean AKI duration ([4]; LD group, 25 mg/kg loading dose): 37.2 h
